From ChEMBL document CHEMBL1201862, “PubChem BioAssay data set” (2004)
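Protocol summary: plate cells (96-well), add compound at 5 concentrations, incubate 48 h, interpolate endpoints linearly. At the GI50, growth is halved.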 Calls of active or inactive are those of the source. Cut-off read from the data, not from the text of the source: active = GI50 up to about 1.1 µM and inactive = higher.

Legend:
Assay in all cases: NCI-60 cell line screen, 48 h
UO-31 = test system: UO-31
SK-OV-3 = test system: SK-OV-3
MOLT-4 = test system: MOLT-4
COLO 205 = test system: COLO 205
SF-268 = test system: SF-268
SN12C = test system: SN12C
HOP-62 = test system: HOP-62
DLD-1 = test system: DLD-1
NCI-H522 = test system: NCI-H522
CAKI-1 = test system: CAKI-1
HCC 2998 = test system: HCC 2998
HCT-15 = test system: HCT-15
NCI-H226 = test system: NCI-H226
IGROV-1 = test system: IGROV-1
Malme-3M = test system: Malme-3M
HOP-92 = test system: HOP-92
XF498 = test system: XF498
OVCAR-3 = test system: OVCAR-3

Structure (SMILES)	GI50 (UO-31)	GI50 (SK-OV-3)	GI50 (MOLT-4)	GI50 (COLO 205)	GI50 (SF-268)	GI50 (SN12C)	GI50 (HOP-62)	GI50 (DLD-1)	GI50 (NCI-H522)	GI50 (CAKI-1)	GI50 (HCC 2998)	GI50 (HCT-15) [µM]	GI50 (NCI-H226)	GI50 (IGROV-1)	GI50 (Malme-3M)	GI50 (HOP-92)	GI50 (XF498)	GI50 (OVCAR-3)
COc1cc(C2=NN(C)C(c3ccc([N+](=O)[O-])o3)C2)cc(OC)c1OC (stereo not drawn)	72.1 µM (inactive)	> 100 µM (inactive)	24 µM (inactive)	36.9 µM (inactive)	> 100 µM (inactive)	83.8 µM (inactive)	> 100 µM (inactive)	48.4 µM (inactive)	43.7 µM (inactive)	> 100 µM (inactive)	> 100 µM (inactive)	18.2	> 100 µM (inactive)	> 100 µM (inactive)	> 100 µM (inactive)	45.5 µM (inactive)		
Cc1cnc2ccc(C)c([N+](=O)[O-])c2c1NCCCN(C)C	27.2 µM (inactive)	> 100 µM (inactive)	> 100 µM (inactive)	76.2 µM (inactive)	> 100 µM (inactive)	> 100 µM (inactive)	> 100 µM (inactive)		> 100 µM (inactive)	> 100 µM (inactive)	> 100 µM (inactive)	> 100	50 µM (inactive)		> 100 µM (inactive)		> 100 µM (inactive)	> 100 µM (inactive)
COc1cc(C(=O)N2CCc3c([nH]c4c([N+](=O)[O-])c(OC)ccc34)C2C)cc(OC)c1OC (stereo not drawn)	> 100 µM (inactive)		> 100 µM (inactive)	> 100 µM (inactive)	29.8 µM (inactive)	> 100 µM (inactive)	> 100 µM (inactive)	> 100 µM (inactive)	> 100 µM (inactive)	> 100 µM (inactive)	> 100 µM (inactive)	> 100	> 100 µM (inactive)	8.11 µM (inactive)				> 100 µM (inactive)
Fc1ccc(C2SCc3nc4ccccc4n32)cc1 (stereo not drawn)	23 µM (inactive)	94.6 µM (inactive)	32.1 µM (inactive)	57 µM (inactive)	54.3 µM (inactive)	27 µM (inactive)	35.8 µM (inactive)	39.7 µM (inactive)	14.1 µM (inactive)	36.8 µM (inactive)		34.8	37.4 µM (inactive)	47.9 µM (inactive)	25.8 µM (inactive)	19.9 µM (inactive)	27.8 µM (inactive)	24.4 µM (inactive)
O=C(c1ccccc1)N1C2CCC1C(C(F)(F)F)=C2C(F)(F)F	> 100 µM (inactive)	> 100 µM (inactive)	> 100 µM (inactive)	> 100 µM (inactive)	> 100 µM (inactive)	> 100 µM (inactive)	> 100 µM (inactive)	> 100 µM (inactive)	> 100 µM (inactive)	> 100 µM (inactive)	> 100 µM (inactive)	> 100	> 100 µM (inactive)	> 100 µM (inactive)	> 100 µM (inactive)	> 100 µM (inactive)		> 100 µM (inactive)
O=C1c2cnccc2Cc2cccc3c2N1c1ccccc1S3			28.3 µM (inactive)	27.4 µM (inactive)	29 µM (inactive)	29 µM (inactive)	20.9 µM (inactive)	29.2 µM (inactive)	12.5 µM (inactive)	2.88 µM (inactive)	16.6 µM (inactive)	23.3		28 µM (inactive)	24.7 µM (inactive)	9.23 µM (inactive)	15.1 µM (inactive)	17.7 µM (inactive)
Cc1cccc(C)c1N1C(=O)C(=O)C(c2nc3ccccc3s2)/C(=N/c2cccc3c(=O)[nH][nH]c(=O)c23)C1=O (stereo not drawn)	> 100 µM (inactive)	> 100 µM (inactive)	66.5 µM (inactive)	41.5 µM (inactive)	> 100 µM (inactive)	> 100 µM (inactive)	> 100 µM (inactive)	> 100 µM (inactive)		> 100 µM (inactive)	> 100 µM (inactive)	> 100	> 100 µM (inactive)	> 100 µM (inactive)	> 100 µM (inactive)	92 µM (inactive)		> 100 µM (inactive)
O=S(=O)(C1=CC(S(=O)(=O)c2ccccc2)COC1)c1ccccc1 (stereo not drawn)	> 100 µM (inactive)	> 100 µM (inactive)	> 100 µM (inactive)	> 100 µM (inactive)	> 100 µM (inactive)	> 100 µM (inactive)	> 100 µM (inactive)	> 100 µM (inactive)	> 100 µM (inactive)	> 100 µM (inactive)	> 100 µM (inactive)	> 100		> 100 µM (inactive)	> 100 µM (inactive)		> 100 µM (inactive)	> 100 µM (inactive)
CC(C)C12Cc3c(ccc4ccccc34)OC1(C)Oc1ccc3ccccc3c1C2 (stereo not drawn)	> 100 µM (inactive)	> 100 µM (inactive)	> 100 µM (inactive)	> 100 µM (inactive)	> 100 µM (inactive)	> 100 µM (inactive)		> 100 µM (inactive)	63.7 µM (inactive)	> 100 µM (inactive)			> 100 µM (inactive)	> 100 µM (inactive)	> 100 µM (inactive)	> 100 µM (inactive)	> 100 µM (inactive)	59.7 µM (inactive)
CC(=O)OC1=C2CC[C@@H]3C(CC[C@@]4(C)C3CC[C@@H]4OC(C)=O)[C@@]2(C)CC(C#N)C1=O (stereo partly drawn)	7.69 µM (inactive)	18.3 µM (inactive)	23.4 µM (inactive)	20.8 µM (inactive)	31 µM (inactive)	28.6 µM (inactive)	8.67 µM (inactive)	9.82 µM (inactive)			13.3 µM (inactive)	28.9	34.7 µM (inactive)	19.2 µM (inactive)	5.58 µM (inactive)	15.1 µM (inactive)	18.6 µM (inactive)	21.2 µM (inactive)
O=C(O)/C(Cl)=C(\Cl)C(=O)Nc1ccccc1	> 100 µM (inactive)	> 100 µM (inactive)	> 100 µM (inactive)	> 100 µM (inactive)	> 100 µM (inactive)	> 100 µM (inactive)	> 100 µM (inactive)	> 100 µM (inactive)		> 100 µM (inactive)	> 100 µM (inactive)	> 100	> 100 µM (inactive)	> 100 µM (inactive)	> 100 µM (inactive)	> 100 µM (inactive)		> 100 µM (inactive)
COc1ccc2c3c(c(C(=O)O)oc13)C(CCC(=O)O)CC2 (stereo not drawn)		> 100 µM (inactive)		> 100 µM (inactive)		> 100 µM (inactive)	> 100 µM (inactive)	> 100 µM (inactive)		> 100 µM (inactive)	> 100 µM (inactive)	> 100		> 100 µM (inactive)		> 100 µM (inactive)	> 100 µM (inactive)	> 100 µM (inactive)
COc1ccc(NC(=O)CC(=O)NN2C(=O)/C(=C/c3ccc(N(CCC#N)CCC#N)cc3C)N=C2/C=C\c2ccccc2)cc1	> 100 µM (inactive)	> 100 µM (inactive)	> 100 µM (inactive)	> 100 µM (inactive)	> 100 µM (inactive)	> 100 µM (inactive)	> 100 µM (inactive)	> 100 µM (inactive)	> 100 µM (inactive)	> 100 µM (inactive)		> 100	> 100 µM (inactive)	> 100 µM (inactive)	> 100 µM (inactive)	> 100 µM (inactive)		> 100 µM (inactive)
CCCCCCCCCCCCCC(=O)OC1CC(=O)OC1CO (stereo not drawn)	32.8 µM (inactive)	> 100 µM (inactive)	25.1 µM (inactive)	> 100 µM (inactive)	64 µM (inactive)	> 100 µM (inactive)	> 100 µM (inactive)	34.4 µM (inactive)		81.1 µM (inactive)	60.3 µM (inactive)	18.5		41 µM (inactive)	> 100 µM (inactive)	17 µM (inactive)	65.3 µM (inactive)	33.6 µM (inactive)
CCc1cc(Cc2cc(CC)c(NC(=O)C(=O)Cc3ccccn3)c(CC)c2Cl)c(Cl)c(CC)c1NC(=O)C(=O)Cc1ccccn1	> 100 µM (inactive)	> 100 µM (inactive)	> 100 µM (inactive)	64 µM (inactive)	> 100 µM (inactive)	> 100 µM (inactive)	> 100 µM (inactive)	> 100 µM (inactive)		> 100 µM (inactive)	> 100 µM (inactive)	39.4	> 100 µM (inactive)	> 100 µM (inactive)	> 100 µM (inactive)	> 100 µM (inactive)	> 100 µM (inactive)	> 100 µM (inactive)
Cc1cc(N(CCC#N)CCC#N)ccc1/N=N/c1ccccc1[N+](=O)[O-]	> 100 µM (inactive)	> 100 µM (inactive)	> 100 µM (inactive)	> 100 µM (inactive)	> 100 µM (inactive)	> 100 µM (inactive)	43.6 µM (inactive)	> 100 µM (inactive)	> 100 µM (inactive)	> 100 µM (inactive)	> 100 µM (inactive)	> 100	> 100 µM (inactive)	> 100 µM (inactive)	> 100 µM (inactive)		26.8 µM (inactive)	> 100 µM (inactive)
O=[N+]([O-])c1ccc(Cl)c(C2CC(c3cccc4ccccc34)=Nc3ccccc3[S+]2[O-])c1 (stereo not drawn)	17.7 µM (inactive)	> 100 µM (inactive)	3.68 µM (inactive)	> 56.6 µM (inactive)	18.4 µM (inactive)	21 µM (inactive)	21.8 µM (inactive)	9.55 µM (inactive)	7.23 µM (inactive)	13.2 µM (inactive)	14.8 µM (inactive)	13.6	21.7 µM (inactive)	28.2 µM (inactive)	18.9 µM (inactive)	0.519 µM (active)		22.6 µM (inactive)
